Assay results as given in patent publication US20130266636A1, “METHODS FOR BLOCKING CELL PROLIFERATION AND TREATING DISEASES AND CONDITIONS RESPONSIVE TO CELL GROWTH INHIBITION” (THE REGENTS OF THE UNIVERSITY OF CALIFORNIA, priority 2010, published 2013).

How the values were obtained:
[1] = target: T1, phospho-S338 c-RAF (CRAF) (Homo sapiens, UniProt P04049); assay: Phospho-S338 CRAF staining in orthotopic MDA-MB-231 breast cancer tissues; type: in vivo, mice; conditions: systemic KG5 50 mg/kg i.p. bid, 3 days
T1 construct: immunofluorescent staining of phospho-S338 c-RAF (CRAF) in orthotopic breast cancer tissues untreated or systemically treated with KG5; from tissue; host or cells: orthotopic MDA-MB-231 tumours in nude mice
T1 sequence (P04049 whole entry): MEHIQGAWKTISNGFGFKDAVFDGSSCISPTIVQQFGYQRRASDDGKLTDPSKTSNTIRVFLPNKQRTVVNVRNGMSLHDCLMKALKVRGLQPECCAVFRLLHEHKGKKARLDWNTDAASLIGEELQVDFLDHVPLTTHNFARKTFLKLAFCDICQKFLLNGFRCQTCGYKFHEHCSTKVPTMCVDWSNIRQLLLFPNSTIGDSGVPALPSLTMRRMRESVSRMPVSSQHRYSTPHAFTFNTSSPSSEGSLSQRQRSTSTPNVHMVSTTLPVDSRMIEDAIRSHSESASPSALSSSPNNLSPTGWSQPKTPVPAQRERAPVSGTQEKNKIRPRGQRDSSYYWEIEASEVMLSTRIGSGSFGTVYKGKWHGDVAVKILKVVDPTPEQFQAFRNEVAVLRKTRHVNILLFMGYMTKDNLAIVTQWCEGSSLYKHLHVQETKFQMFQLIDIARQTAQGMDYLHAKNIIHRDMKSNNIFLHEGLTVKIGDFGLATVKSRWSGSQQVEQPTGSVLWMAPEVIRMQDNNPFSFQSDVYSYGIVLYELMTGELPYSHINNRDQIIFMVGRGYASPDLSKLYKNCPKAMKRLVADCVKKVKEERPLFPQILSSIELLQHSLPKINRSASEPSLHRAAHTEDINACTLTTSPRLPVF
Method: FIG. 4 illustrates the effect of KG5 on orthotopic MDA-MB-231 breast cancer cells after three days, as further discussed in Example 1, below.
FIG. 4 illustrates an immunofluorescent staining of phospho-S338 c-RAF (CRAF) in orthotopic breast cancer tissues untreated or systemically treated with KG5 for 3 days.
Tumors were generated by injection of MDA-MB-231 human breast carcinoma cells (2×10^6 tumor cells in 50 μl of sterile PBS) into the mammary fatpad of 6-8 week old female nude mice. Tumors were established for 2 weeks before beginning dosing. Mice were dosed with vehicle (10% HS-15) or 50 mg/kg KG5 (i.p. bid) for 3 days prior to harvest. All research was conducted under protocols approved by the UCSD animal subjects committee and in accordance with the guidelines set forth in the NIH Guide for the Care and Use of Laboratory Animals.
Immunostaining was performed according to the manufacturer's recommendations (Vector Labs), on […] sections of paraffin-embedded tumors from the orthotopic xenograft breast and brain cancer mouse models, the subcutaneous tumor mouse model or from human patients diagnosed with breast or brain cancer (as approved by the Institutional Review Board at University of California, San Diego). Antigen retrieval was performed in citrate buffer pH 6.0 at 95° C. for 20 min. […]

p-MEK and p-ERK = conditions: cited from earlier work

CSc1nc(N)cc(Oc2ccc(-c3nnc(Nc4cccc(C(F)(F)F)c4)[nH]3)cc2)n1 [KG5]
phospho-S338 CRAF in orthotopic breast cancer tissues [1]: qualitative decrease in phospho-5338 RAF | phospho-S338 CRAF in orthotopic breast cancer tissues ([1]; 50 mg/kg): inhibits serine 338 phosphorylation of CRAF | p-MEK and p-ERK (p-MEK and p-ERK; bFGF- or VEGF-stimulated endothelial cells): blocked | bFGF- or VEGF-mediated phosphorylation of MEK on S217/S221 (p-MEK and p-ERK; endothelial cells): inhibited | bFGF- or VEGF-mediated phosphorylation of MEK on S298 (p-MEK and p-ERK; endothelial cells): not on S298
